Where no end group is shown, it is not given here.
Key:
[1] = test system: RetOx, CYP81F2 and PAD3 transcripts; experiment: Elicitor-induced accumulation of Ret-Ox, CYP81F2 and PAD3 transcripts, semi-quantitative PCR; type: cell-based, Arabidopsis thaliana; settings: flg22 1 μM, 30 minutes
Experimental: B) Elicitor induced accumulation of Ret-Ox, CYP81F2 and PAD3 transcripts analysed by semi-quantitative PCR, using the UBQ5 gene for normalization. Leaves were incubated with water, flg22 (1 μM), elfl8 (10 μM) or a generic peptide (10 μM) for 30 minutes. The experiment was repeated three times with similar results. The same experiment was performed in a second independent transgenic line expressing eJMC with similar results.
3,3′-diaminobenzidine (DAB) staining, callose deposition and gene resistance analysis were assayed as described (Galletti et al., 2008). For measuring active oxygen species released by tobacco agroinfiltrated plants after elicitor treatment, the authors used a modified luminol-dependent assay (Gomez et al., 1999). Slices, corresponding to approximately 30 mg fresh weight, were transferred to assay tubes containing 1 μM flg22 or 10 μM elfl8 in aqueous solution supplied with 40 μM luminol (SIGMA). Chemo-luminescence was measured in a liquid scintillation counter (LS-6500, Beckman) after 5 and 15 min upon addition of elicitors.
Fluorescent eJMC and FLS2 were also stably expressed in transgenic Arabidopsis ecotype Wassilewskija (Ws-0), which carries EFR but lacks a flg22 perception system (Gomez-Gomez et al., 1999, Bauer et al., 2001). Transformed T1 plants expressing the proteins, named eJMC plants and FLS2 plants, respectively, were selected by confocal microscopy analysis of adult rosette leaves. […] Fluorescence was detected only in adult rosette leaves, likely due to a low expression level of the receptor at the different developmental stages.

[2] = test system: agroinfiltrated leaves of N. tabacum ecotype SR1; experiment: Receptor internalization in agroinfiltrated tobacco leaves; type: cell-based, Nicotiana tabacum; settings: 10 μM flg22, 30 min
Experimental: E) Relative variation of fluorescence in agroinfiltrated tobacco leaves expressing EFR, FLS2, eJMC and TMC and treated with 10 μM elfl8 or 10 μM flg22 for 30 min.
(§1) The GFP-dependent fluorescence was monitored from 2 to 4 days post infection in cells of the lower epidermis. Pieces of leaf were randomly cut from the infected area and mounted in water or supplemented with elicitors for microscopic observations. Flg22 and elfl8 were used at 10 μM while oligosaccharides were used at 100 μg/mL. Materials were analyzed using a Leica DM IRE epifluorescence microscope equipped with a digital cooled camera (DFC350FX R2; Leica). GFP fluorescence was excited with a 488-nm laser line, and emitted fluorescence was collected at 543-nm. The Leica Confocal Software and Adobe Photoshop 5.0 were used for post-acquisition image processing. All samples were imaged with the 40× or 100× oil objectives. Pictures were taken in Kahlman frame giving an average of 16 scans for the dynamics of internalization and 4 scans for the cellular localizations.
The behaviour of TMC and eJMC upon treatment with flg22 and elfl8 was also analysed in agroinfiltrated leaves of N. tabacum ecotype SR1 and compared to that of EFR and FLS2. […] Instead, in the eJMC expressing plants fluorescence decreased within 10-30 min after stimulation with flg22, at an extent similar to that observed in Arabidopsis, i.e. by 25% and 35% after 20 min and 30 min, respectively (FIG. 3E).

[3] = test system: ethylene biosynthesis in tobacco leaves; experiment: Induction of ethylene biosynthesis in agroinfiltrated tobacco leaf explants; type: cell-based, Nicotiana tabacum; settings: flg22, 2 h; compared with EFR-expressing explants as negative controls
Experimental: F) Induction of ethylene biosynthesis in agroinfiltrated tobacco leaves expressing the fluorescent EFR, FLS2, TMC, eJMC and eJMC^Y859A. NC: negative control, represented by agroinfiltrated leaf tissues expressing fluorescent EFR or FLS2 and elicited with flg22 or elfl8, respectively. Results are averages±standard error (n=3).
Excised infiltrated leaf sectors were stimulated for 2 h with water or the elicitor ([…] and 100 μg/ml for OGs). Values are means±s.e.m. (N=3).
E) Induction of ethylene biosynthesis in agroinfiltrated tobacco leaves expressing EFR, WAK1, WEG and EWAK. Each construct was stimulated for 2 h with elfl8 (10 μM) or OGs (100 μg/mL). NC: negative control, represented by agroinfiltrated leaf tissue expressing EFR or FLS2 when OGs or elfl8, respectively, were used for elicitation. Error bars indicate the standard error of three independent replicates.
(A) Induction of ethylene biosynthesis in agroinfiltrated tobacco explants expressing EFR, WAK1, WEG and EWAK. […] Agroinfiltrated leaf tissues expressing EFR or WEG and elicited with OGs or elfl8 respectively, represented our negative control. Values are means±s.e.m. (N=3). (B) Elicitor-induced gene expression in untransformed Col-0 and Col-0 efr plants, and in transgenic Arabidopsis Col-0 efr plants stably expressing WEG. Accumulation of At3g22270 and At4g37640 transcripts was analysed by semi-quantitative PCR, using the UBQ5 gene for normalization. Adult leaves were syringe-infiltrated with water, OGs (25 μg/ml) or elfl8 (10 μM) for 3 h. The experiment was repeated three times with similar results. The same experiment was performed in a second independent transgenic line expressing WEG with similar results.
Approximately 150 mg of tobacco agroinfiltrated leaf were cut in small slices and extensively washed with sterile distilled water. The explants were placed in sealed 10 mL flasks containing 2 mL of sterile water alone or supplemented with 100 mg L^−1 OGs, or 1 μM flg22 or 10 μM elfl8. 450 μl headspace samples were withdrawn from the vial after 2 h treatment and analyzed by gas chromatography-mass spectrometry using an Agilent 6850A gas chromatograph coupled to a 5973N quadrupole mass selective detector (Agilent Technologies, Palo Alto, Calif., USA). Chromatographic separations were carried out an HP Plot-Q fused-silica capillary column (30 m×0.32 mm i.d.) coated with polystyrene-divinylbenzene (film thickness 0.20 μm) as stationary phase. Injection mode: splitless at a temperature of 220° C. The initial temperature of the oven was held at 50° C. for 8 min then ramped to 220° C. at a rate of 15° C./min and held for 5 min. Helium was used as carrier gas at a constant flow of 1.0 ml/min. Mass spectra were collected both in full scan and in SIM mode monitoring the ions m/z m/z 26, m/z 27 and m/z 28 (ionization energy 70 eV; ion source 280° C.; ion source vacuum 10^−5 Torr).

[4] = test system: agroinfiltrated Arabidopsis thaliana Col-0 leaves; experiment: Receptor internalization: decrease of GFP fluorescence by confocal microscopy in agroinfiltrated Arabidopsis Col-0 leaves; type: cell-based; settings: 10 μM flg22, 30 min
Experimental: PCR templates are shown in bold. Primers listed in Table 1 are shown in capital letters. Stable transgenic lines were generated using the standard A. tumefaciens-mediated gene transfer procedure of inflorescence infiltration (Bent et al., 2006). Independent transformed plant pools were kept separate for the selection of independent transgenic lines based on their phosphinotrycin resistance and leaves GFP fluorescence. Tobacco and Arabidopsis transient transgenic lines were prepared by infiltrating with Agrobacterium tumefaciens carrying the individual constructs, as described by Reca (2008).
as §1, with “localizations. […]” for “localizations.”
The dynamics of fluorescence localization upon treatment with elicitors was then studied. Whereas endocytosis of surface receptors upon ligand binding often occurs in animals (Warren and Landgraf 2006), this mechanism in plants has emerged only recently (Geldner & Robatzek 2008) and, so far, FLS2 is the only receptor involved in plant immunity shown to undergo endocytosis upon the specific stimulation with flg22 (Robatzek et al., 2006). The authors tested the effect of flg22 and elf 18, i.e. the peptides specifically recognized by FLS2 and EFR respectively, and oligogalacturonides with a degree of polymerization between 10 and 16 (OGs), which act as general elicitors of defense responses in several plants. Explants from agroinfiltrated Arabidopsis leaves at 2 dpi were treated with elicitors and then subjected to confocal microscopy analysis. […] Instead, when eJMC-expressing explants were stimulated with flg22, the fluorescent signal decreased by 25% and 40% after 20 min and 30 min, respectively (FIG. 3B).
The first chimeric receptor, indicated as WEG, comprised the WAK1 ectodomain fused to the TM-iJM-kinase portion of EFR and was designed to test the ability of the WAK1 ectodomain to perceive OGs and transmit the signal inside the cell. […] Both WEG and EWAK as well as WAK1 were fused to GFP and used in agroinfiltration experiments (FIG. 5A). […] Western-blot analysis using GFP-specific antibodies on proteins from IWF and microsomal fractions prepared from infiltrated leaves confirmed the plasma membrane localization of both fluorescent chimeras (FIG. 5D). The effect of OGs on the internalization of WEG was followed in agroinfiltrated Arabidopsis Col-0 leaves. […] This might be due to the inability of WEG to uncouple its ectodomain from pectins, since it is known that WAK1 strongly binds to pectin and only denaturing treatments allow its separation from cell wall (He et al., 1996). On the other hand, affinity studies have shown that WAK1 interact with cell wall pectins that are in a Ca^2+-induced conformation (i.e. the structures called “egg boxes”) and that the interaction is disrupted by adding a chelating agent such as EDTA (Decreux et al., 2005; Cabrera et al., 2008). The authors therefore tested whether OG-induced internalization of WEG occurred in the presence of 5 mM EDTA. WEG-expressing agroinfiltrated leaves were syringe-infiltrated with OGs and after 30 min the tissues were mounted in the presence of EDTA for confocal microscopy analysis. […]

Row | Substance | expression of RetOx, CYP81F2 and PAD3 in untransformed Ws-0 plants [1] | internalization after stimulation with flg22 [2] | ethylene release induced by flg22 [3] | decrease in fluorescence upon treatment with flg22 [4]
1 | QRLSTGSRINSAKDDAAGLQIA [flg22] | not in the untransformed plants |  |  | 
2 | TMC: chimera (Ala817FLS2-Leu661EFR): FLS2 LRR, eJM and N-terminal half of TM fused to C-terminal half of EFR TM, iJM and kinase |  | Neither FLS2 nor TMC underwent internalization | only a weak response | did not show any decrease in fluorescence

Reference: patent US9499823B2, “Constructs expressing chimeric receptors and use thereof for the controlled activation of defence response to pathogens in plants” (priority 2009, dated 2016)
